# From patent EP1290011B1 (Oncopeptides AB, priority 2000, dated 2001)
# Structures can show the parent of a compound that is named as a salt. Where two headings read alike, the source gives them in different places.
# Assays:
# Test in all cases: cells
# [1] = test system: solid tumour fresh human tumour specimens (PHTC); conditions: 72 h, read-out: Tumour cell survival index % Solid
# CEM/S = assay type: cell-based, human
# NCI-H157 = assay type: cell-based
# [2] = test system: panel of ten human tumour cell lines; assay type: cell-based; conditions: read-out: MEAN IC50
# U-1906E = assay type: cell-based
# U-1810 = assay type: cell-based
# U-1568 = assay type: cell-based
# CEM/R = assay type: cell-based, human
# 8226S = assay type: cell-based, human
# U1690 = assay type: cell-based
# 8226LR5 = assay type: cell-based, human
# H69 = assay type: cell-based, human
# ACHN = assay type: cell-based, human
# H69AR = assay type: cell-based, human
# NCI-H23 = assay type: cell-based
# U1285 = assay type: cell-based
# NCI-H125 = assay type: cell-based
# NCI-H611 = assay type: cell-based
# U-1752 = assay type: cell-based
# U937vcr = assay type: cell-based, human
# [3] = test system: hematological fresh human tumour specimens (PHTC); conditions: 72 h, read-out: Tumour cell survival index % Hematological
# 8226Dox40 = assay type: cell-based, human
# U937gtb = assay type: cell-based, human
# U1906L = assay type: cell-based
# [4] = CEM/S, 72 hours incubation, read-out: IC50
# [5] = CEM/R, 72 hours incubation, read-out: IC50
# [6] = 8226S, myeloma, 72 hours incubation, read-out: IC50
# [7] = 8226LR5, melphalan resistance, 72 hours incubation, read-out: IC50
# [8] = H69, small cell lung cancer, 72 hours incubation, read-out: IC50
# [9] = ACHN, primary resistant renal carcinoma, 72 hours incubation, read-out: IC50
# [10] = H69AR, doxorubicin resistance, 72 hours incubation, read-out: IC50
# [11] = 8226Dox40, doxorubicin resistance, 72 hours incubation, read-out: IC50
# [12] = U937vcr, vincristine resistance, 72 hours incubation, read-out: IC50
# [13] = U937gtb, lymphoma, 72 hours incubation, read-out: IC50
compound,measurement,setting,value
Nc1ccn([C@@H]2O[C@H](CO)[C@@H](O)[C@@H]2O)c(=O)n1 [AraC],viability at 10.3 µM,[1],102%
"N.N.[Cl][Pt][Cl] [Cisplatin, cisplatin, reference compound]",IC50,CEM/S; read-out: IC50,2500 nM
same,IC50,NCI-H157; read-out: IC50,27 µM
same,IC50,[2],18000 nM
same,IC50,U-1906E; read-out: IC50,21.1 µM
same,IC50,U-1810; read-out: IC50,10.3 µM
same,IC50,U-1568; read-out: IC50,23.4 µM
same,IC50,CEM/R; read-out: IC50,1870 nM
same,IC50,8226S; read-out: IC50,14800 nM
same,IC50,U1690; read-out: IC50,6.73 µM
same,IC50,8226LR5; read-out: IC50,16300 nM
same,IC50,H69; read-out: IC50,92500 nM
same,IC50,ACHN; read-out: IC50,17800 nM
same,IC50,H69AR; read-out: IC50,13500 nM
same,IC50,NCI-H23; read-out: IC50,11.6 µM
same,IC50,U1285; read-out: IC50,2930 nM
same,IC50,NCI-H125; read-out: IC50,7 µM
same,IC50,NCI-H611; read-out: IC50,50.7 µM
same,IC50,U-1752; read-out: IC50,11.7 µM
same,IC50,U937vcr; read-out: IC50,3000 nM
"COc1cc([C@@H]2c3cc4c(cc3[C@@H](O[C@@H]3O[C@@H]5CO[C@@H](C)O[C@H]5[C@H](O)[C@H]3O)[C@H]3COC(=O)[C@H]23)OCO4)cc(OC)c1O [Etoposide, etoposide]",viability at 8.5 µM,[3],47%
same,viability at 8.5 µM,[1],81%
"O=c1[nH]cc(F)c(=O)[nH]1 [Example 5-FU, 5-FU, reference compound]",IC50,CEM/S; [4],57400 nM
same,IC50,[2]; mean over the ten cell lines,321000 nM
same,IC50,CEM/R; [5],44500 nM
same,IC50,8226S; [6],75600 nM
same,IC50,8226LR5; [7],5300 nM
same,IC50,H69; [8],769000 nM
same,IC50,ACHN; [9],769000 nM
same,IC50,H69AR; [10],769000 nM
same,IC50,8226Dox40; [11],60600 nM
same,IC50,U937vcr; [12],572000 nM
"CCOC(=O)[C@H](Cc1ccccc1)NC(=O)[C@@H](N)Cc1ccc(N(CCCl)CCCl)cc1 [JV22, L-Melphalanyl-L-phenylalanine ethyl ester hydrochloride]",IC50,CEM/S; read-out: IC50,20 nM
same,IC50,[2],480 nM
same,IC50,CEM/R; read-out: IC50,10 nM
same,IC50,U937gtb; read-out: IC50,140 nM
same,IC50,8226S; read-out: IC50,670 nM
same,IC50,8226LR5; read-out: IC50,1860 nM
same,IC50,H69; read-out: IC50,40 nM
same,IC50,ACHN; read-out: IC50,170 nM
same,IC50,H69AR; read-out: IC50,390 nM
same,IC50,8226Dox40; read-out: IC50,1380 nM
same,IC50,U937vcr; read-out: IC50,130 nM
"CCOC(=O)[C@H](Cc1ccc(O)cc1)NC(=O)[C@@H](N)Cc1ccc(N(CCCl)CCCl)cc1 [JV24, L-Helphalanyl-L-tyrosine ethyl ester hydrochloride]",IC50,CEM/S; read-out: IC50,50 nM
same,IC50,[2],1050 nM
same,IC50,CEM/R; read-out: IC50,30 nM
same,IC50,U937gtb; read-out: IC50,200 nM
same,IC50,8226S; read-out: IC50,1110 nM
same,IC50,8226LR5; read-out: IC50,2500 nM
same,IC50,H69; read-out: IC50,80 nM
same,IC50,ACHN; read-out: IC50,320 nM
same,IC50,H69AR; read-out: IC50,480 nM
same,IC50,8226Dox40; read-out: IC50,5540 nM
same,IC50,U937vcr; read-out: IC50,210 nM
"CCOC(=O)[C@H](Cc1ccc(OC)cc1)NC(=O)[C@@H](N)Cc1ccc(N(CCCl)CCCl)cc1 [JV25, L-Melphalanyl-L-p-methoxyphenylalanine ethyl ester hydrochloride]",IC50,CEM/S; [4],40 nM
same,IC50,[2]; mean over the ten cell lines,460 nM
same,IC50,CEM/R; [5],20 nM
same,IC50,U937gtb; [13],150 nM
same,IC50,8226S; [6],650 nM
same,IC50,8226LR5; [7],1820 nM
same,IC50,H69; [8],40 nM
same,IC50,ACHN; [9],200 nM
same,IC50,H69AR; [10],280 nM
same,IC50,8226Dox40; [11],1200 nM
same,IC50,U937vcr; [12],160 nM
"CCOC(=O)[C@H](Cc1ccc([N+](=O)[O-])cc1)NC(=O)[C@@H](N)Cc1ccc(N(CCCl)CCCl)cc1 [JV26, L-Malphalanyl-L-p-nitrophenylalanine ethyl ester hydrochloride]",IC50,CEM/S; [4],50 nM
same,IC50,[2]; mean over the ten cell lines,610 nM
same,IC50,CEM/R; [5],30 nM
same,IC50,U937gtb; [13],230 nM
same,IC50,8226S; [6],1050 nM
same,IC50,8226LR5; [7],1990 nM
same,IC50,H69; [8],60 nM
same,IC50,ACHN; [9],220 nM
same,IC50,H69AR; [10],510 nM
same,IC50,8226Dox40; [11],1730 nM
same,IC50,U937vcr; [12],260 nM
"CCOC(=O)[C@H](Cc1ccc(N(CCCl)CCCl)cc1)NC(=O)[C@@H](N)Cc1ccc(N(CCCl)CCCl)cc1 [JV27, L-Melphalanyl-L-melphalan ethyl ester hydrochloride]",IC50,CEM/S; [4],140 nM
same,IC50,[2]; mean over the ten cell lines,760 nM
same,IC50,CEM/R; [5],100 nM
same,IC50,U937gtb; [13],160 nM
same,IC50,8226LR5; [7],2460 nM
same,IC50,H69; [8],290 nM
same,IC50,ACHN; [9],210 nM
same,IC50,H69AR; [10],1400 nM
same,IC50,8226Dox40; [11],1580 nM
same,IC50,U937vcr; [12],260 nM
"CCOC(=O)[C@H](Cc1ccc(N)cc1)NC(=O)[C@@H](N)Cc1ccc(N(CCCl)CCCl)cc1 [JV29, L-Me3phalariyl-L-p-aminophenylalanine ethyl ester hydrochloride]",IC50,CEM/S; [4],60 nM
same,IC50,[2]; mean over the ten cell lines,680 nM
same,IC50,CEM/R; [5],30 nM
same,IC50,U937gtb; [13],150 nM
same,IC50,8226S; [6],900 nM
same,IC50,8226LR5; [7],2730 nM
same,IC50,H69; [8],90 nM
same,IC50,ACHN; [9],190 nM
same,IC50,H69AR; [10],460 nM
same,IC50,8226Dox40; [11],2010 nM
same,IC50,U937vcr; [12],190 nM
"CC[C@@]1(O)C(=O)OCc2c1cc1n(c2=O)Cc2cc3c(CN(C)C)c(O)ccc3nc2-1 [Topotecan, topotecan, reference compound]",IC50,"CEM/S; Homo sapiens, 72 h",20 nM
same,IC50,"NCI-H157; Homo sapiens, NCI-H157",4.33 µM
same,IC50,U1906L,120 nM
same,IC50,[2]; Homo sapiens,20000 nM
same,IC50,U-1906E,0.08 µM
same,IC50,U-1810; U-1810,0.08 µM
same,IC50,U-1568,115 µM
same,IC50,"CEM/R; Homo sapiens, 72 h",20 nM
same,IC50,"U937gtb; Homo sapiens, U-937/GTB, 72 h",20 nM
same,IC50,"8226S; Homo sapiens, 72 h",870 nM
same,IC50,U1690,0.92 µM
same,IC50,"8226LR5; Homo sapiens, 72 h",210 nM
same,IC50,"H69; Homo sapiens, NCI-H69, 72 h",1720 nM
same,IC50,"ACHN; Homo sapiens, ACHN, 72 h",16300 nM
same,IC50,"H69AR; Homo sapiens, H69AR, 72 h",180000 nM
same,IC50,"NCI-H23; Homo sapiens, NCI-H23",5.84 µM
same,IC50,U1285,170 nM
same,IC50,"NCI-H125; Homo sapiens, NCI-H125",236 µM
same,IC50,NCI-H611,236 µM
same,IC50,U-1752,28 µM
same,IC50,"8226Dox40; Homo sapiens, 72 h",590 nM
same,IC50,"U937vcr; Homo sapiens, 72 h",20 nM
"CC[C@]1(O)C[C@H]2CN(CCc3c([nH]c4ccccc34)[C@@](C(=O)OC)(c3cc4c(cc3OC)N(C=O)[C@H]3[C@@](O)(C(=O)OC)[C@H](OC(C)=O)[C@]5(CC)C=CCN6CC[C@]43[C@@H]65)C2)C1 [Vincristine, vincristine, reference compound]",IC50,"CEM/S; Homo sapiens, 72 h",80 nM
same,IC50,[2]; Homo sapiens,30100 nM
same,IC50,"CEM/R; Homo sapiens, 72 h",10 nM
same,IC50,"U937gtb; Homo sapiens, U-937/GTB, 72 h",10 nM
same,IC50,"8226S; Homo sapiens, 72 h",10 nM
same,IC50,"8226LR5; Homo sapiens, 72 h",80 nM
same,IC50,"H69; Homo sapiens, NCI-H69, 72 h",69800 nM
same,IC50,"ACHN; Homo sapiens, ACHN, 72 h",109000 nM
same,IC50,"H69AR; Homo sapiens, H69AR, 72 h",121000 nM
same,viability at 3 µM,[3],39%
same,IC50,"8226Dox40; Homo sapiens, 72 h",900 nM
same,viability at 3 µM,[1],93%
same,IC50,"U937vcr; Homo sapiens, 72 h",80 nM
"CCC1=C[C@@H]2CN(C1)Cc1c([nH]c3ccccc13)[C@@](C(=O)OC)(c1cc3c(cc1OC)N(C)[C@H]1[C@@](O)(C(=O)OC)[C@H](OC(C)=O)[C@]4(CC)C=CCN5CC[C@]31[C@@H]54)C2 [Vinorelbine, vinorelbine]",viability at 3.1 µM,[3],50%
same,viability at 3.1 µM,[1],73%
